In EPA's ToxRefDB 2:

Key:
rat [1] = conditions: Carcinogenicity; other; Oral; Gavage/Intubation; dose end: 113 week; group: systemic; systemic / in life observation / body weight / body weight gain + systemic / in life observation / clinical signs / nasal discharge + …
mouse [2] = conditions: Carcinogenicity; b6c3f1; Oral; Gavage/Intubation; dose end: 90 week; group: systemic; systemic / pathology microscopic / liver / carcinoma + systemic / in life observation / clinical signs / alopecia + systemic / in life …
rat [3] = conditions: Subchronic oral toxicity in rodents, fischer, Feed, dose end: 14 week, group: systemic
mouse [4] = conditions: Subchronic oral toxicity in rodents, b6c3f1, Feed, dose end: 14 week, group: systemic
rabbit = conditions: Prenatal developmental toxicity study, new zealand white, Oral, Gavage/Intubation, dose end: 18 GD
rat [5] = conditions: Multigenerational reproductive toxicity study, other, Oral, Feed, dose end: 2 generation
mouse [6] = conditions: Carcinogenicity, cd1, Oral, Diet, dose end: 85 week, group: systemic
dog [7] = conditions: Chronic toxicity, beagle, Oral, Capsule, dose end: 52 week, group: systemic
rat [8] = conditions: Multigenerational reproductive toxicity study, sprague dawley, Oral, Feed, dose end: 3 generation
rat [9] = conditions: Combined chronic toxicity/carcinogenicity, wistar, Oral, Feed, dose end: 103 week, group: systemic
rat [10] = conditions: Prenatal developmental toxicity study, other, Oral, Gavage/Intubation, dose end: 15 GD
mouse [11] = conditions: Combined chronic toxicity/carcinogenicity, cd1, Oral, Diet, dose end: 104 week, group: systemic
rat [12] = conditions: Chronic toxicity; other; Oral; Feed; dose end: 26 week; group: systemic; systemic / in life observation / body weight / body weight gain + systemic / in life observation / food consumption / food consumption + …
dog [13] = conditions: Sub-acute repeat dose toxicity; beagle; Injection; Intravenous; dose end: 1 month; group: systemic; systemic / hematology / erythrocyte (rbc) count differential / erythrocyte (rbc) + systemic / hematology / hematocrit (hct) / hematocrit (…
dog [14] = conditions: Chronic toxicity; beagle; Oral; Capsule; dose end: 33 week; group: systemic; systemic / hematology / hematocrit (hct) / hematocrit (hct) + systemic / hematology / hemoglobin (hgb) / hemoglobin (hgb) + systemic / organ…
rat [15] = conditions: Developmental neurotoxicity study, wistar, Inhalation, Whole-Body, dose end: 81 PND, group: cannot be grouped
rat [16] = conditions: Developmental neurotoxicity study; sprague dawley; Inhalation; Whole-Body; dose end: 21 PND; group: cannot be grouped; developmental / developmental malformation / general / [other] + systemic / in life observation / body weight / offspring (pup) weight + …
rat [17] = conditions: Developmental neurotoxicity study; wistar; Inhalation; Whole-Body; dose end: 98 PND; group: cannot be grouped; systemic / in life observation / body weight / offspring (pup) weight
rat [18] = conditions: Developmental neurotoxicity study, sprague dawley, Inhalation, Whole-Body, dose end: 63 PND, group: cannot be grouped
rat [19] = conditions: Developmental neurotoxicity study; wistar; Inhalation; Whole-Body; dose end: 119 PND; group: cannot be grouped; systemic / in life observation / body weight / offspring (pup) weight
mouse [20] = conditions: Developmental neurotoxicity study; cd1; Inhalation; Whole-Body; dose end: 20 PND; group: cannot be grouped; systemic / in life observation / body weight / offspring (pup) weight gain + systemic / in life observation / clinical signs / grip strength
[21] = systemic / pathology microscopic / liver / vacuolization cytoplasmic + systemic / organ weight / liver / nos + systemic / pathology gross…
[22] = systemic / organ weight / liver / absolute + systemic / organ weight / liver / relative to body weight + systemic / pathology gross / liver…
[23] = systemic / organ weight / liver / absolute + systemic / organ weight / liver / relative to body weight + systemic / pathology microscopic / …
[24] = group: developmental, developmental / developmental malformation / bone / fused + developmental / developmental malformation / bone / supernumerary
[25] = group: maternal, reproductive / reproductive performance / resorptions / resorptions
[26] = group: offspring, developmental / offspring survival late / viability index / viability index + systemic / in life observation / body weight / offspring (pup…
[27] = group: offspring, systemic / in life observation / body weight / offspring (pup) weight + systemic / in life observation / body weight / offspring (pup) …
[28] = group: parental, systemic / in life observation / body weight / body weight gain
[29] = group: parental, systemic / in life observation / body weight / body weight gain + systemic / in life observation / body weight / body weight + systemic / in…
[30] = group: reproductive, reproductive / reproductive performance / mating / mating
[31] = systemic / in life observation / mortality / mortality + systemic / pathology microscopic / adrenal gland / amyloid deposition + systemic / …
[32] = systemic / in life observation / body weight / body weight gain + systemic / in life observation / food consumption / food consumption + …
[33] = group: offspring, systemic / in life observation / body weight / offspring (pup) weight
[34] = group: parental, systemic / in life observation / body weight / body weight
[35] = group: reproductive, reproductive / offspring survival early / birth index / live birth index
[36] = systemic / organ weight / spleen / nos + systemic / organ weight / spleen / relative to body weight
[37] = group: developmental, developmental / developmental malformation / bone / [other] + developmental / developmental malformation / bone / delayed ossification + …
[38] = group: maternal, systemic / in life observation / body weight / body weight + systemic / in life observation / body weight / body weight gain + systemic / in…
[39] = systemic / in life observation / body weight / body weight + systemic / in life observation / body weight / body weight gain + developmental…
[40] = systemic / in life observation / body weight / body weight gain + systemic / in life observation / clinical signs / motor activity
[41] = systemic / in life observation / body weight / body weight gain + systemic / in life observation / clinical signs / motor activity + …

ClC(Cl)C(Cl)Cl [1,1,2,2-Tetrachloroethane]
LEL (rat [1]): 43 mg/kg/day | LOAEL (rat [1]): > 76 mg/kg/day | NEL (rat [1]): < 43 mg/kg/day | NOAEL (rat [1]): ≥ 76 mg/kg/day | LEL (mouse [2]): 142 mg/kg/day | LOAEL (mouse [2]): > 284 mg/kg/day | NEL (mouse [2]): < 142 mg/kg/day | NOAEL (mouse [2]): ≥ 284 mg/kg/day | LOAEL (rat [3]; systemic / in life observation / body weight / body weight gain + systemic / pathology microscopic / liver / vacuolization cytoplasmic): 40 mg/kg/day | NOAEL (rat [3]; systemic / in life observation / body weight / body weight gain + systemic / pathology microscopic / liver / vacuolization cytoplasmic + …): 20 mg/kg/day | LEL (rat [3]; [21]): 20 mg/kg/day | NEL (rat [3]; [21]): < 20 mg/kg/day | LEL (mouse [4]; [22]): 80 mg/kg/day | NEL (mouse [4]; [22]): < 80 mg/kg/day | LOAEL (mouse [4]; [23]): 160 mg/kg/day | NOAEL (mouse [4]; [23]): 80 mg/kg/day

CC(C)=CC1C(C(=O)OCc2coc(Cc3ccccc3)c2)C1(C)C (stereo not drawn) [Resmethrin]
LEL (rabbit; [24]): 100 mg/kg/day | LOAEL (rabbit; [24]): 100 mg/kg/day | NEL (rabbit; [24]): 30 mg/kg/day | NOAEL (rabbit; [24]): 30 mg/kg/day | LEL (rabbit; [25]): 100 mg/kg/day | LOAEL (rabbit; [25]): 100 mg/kg/day | NEL (rabbit; [25]): 30 mg/kg/day | NOAEL (rabbit; [25]): 30 mg/kg/day | LOAEL (rat [5]; [26]): 70.8 mg/kg/day | NOAEL (rat [5]; [26]): 34.8 mg/kg/day | LEL (rat [5]; [27]): 34.8 mg/kg/day | NEL (rat [5]; [27]): 17.4 mg/kg/day | NEL (rat [5]; [28]): 34.8 mg/kg/day | NOAEL (rat [5]; [28]): 34.8 mg/kg/day | LEL (rat [5]; [29]): 70.8 mg/kg/day | LOAEL (rat [5]; [29]): 70.8 mg/kg/day | LEL (rat [5]; [30]): 70.8 mg/kg/day | LOAEL (rat [5]; [30]): 70.8 mg/kg/day | NEL (rat [5]; [30]): 34.8 mg/kg/day | NOAEL (rat [5]; [30]): 34.8 mg/kg/day | LOAEL (mouse [6]; [31]): 138 mg/kg/day | NEL (mouse [6]; [31]): 36.3 mg/kg/day | NOAEL (mouse [6]; [31]): 71.3 mg/kg/day | LEL (mouse [6]; systemic / organ weight / adrenal gland / absolute + systemic / organ weight / adrenal gland / relative to body weight + systemic / organ …): 71.3 mg/kg/day | NEL (dog [7]; [32]): 108 mg/kg/day | NOAEL (dog [7]; [32]): 108 mg/kg/day | LOAEL (dog [7]; systemic / in life observation / body weight / body weight gain + systemic / pathology microscopic / eye / cataract, subcapsular): 430 mg/kg/day | LEL (dog [7]; systemic / in life observation / body weight / body weight gain + systemic / pathology microscopic / eye / cataract, subcapsular + systemic…): 430 mg/kg/day | LEL (rat [8]; [33]): 25 mg/kg/day | LOAEL (rat [8]; [33]): 25 mg/kg/day | NEL (rat [8]; [33]): < 25 mg/kg/day | NOAEL (rat [8]; [33]): < 25 mg/kg/day | LEL (rat [8]; [34]): 40 mg/kg/day | LOAEL (rat [8]; [34]): 40 mg/kg/day | NEL (rat [8]; [34]): 25 mg/kg/day | NOAEL (rat [8]; [34]): 25 mg/kg/day | LEL (rat [8]; [35]): 40 mg/kg/day | LOAEL (rat [8]; [35]): > 62.5 mg/kg/day | NEL (rat [8]; [35]): 25 mg/kg/day | NOAEL (rat [8]; [35]): ≥ 62.5 mg/kg/day | LOAEL (rat [9]; systemic / organ weight / liver / absolute + systemic / in life observation / body weight / body weight + systemic / in life observation / …): 233 mg/kg/day | NOAEL (rat [9]; systemic / organ weight / liver / absolute + systemic / organ weight / liver / relative to body weight + systemic / organ weight / spleen / …): 47 mg/kg/day | LEL (rat [9]; [36]): 47 mg/kg/day | NEL (rat [9]; [36]): < 47 mg/kg/day | LEL (rat [10]; [37]): 80 mg/kg/day | LOAEL (rat [10]; [37]): 80 mg/kg/day | NEL (rat [10]; [37]): 40 mg/kg/day | NOAEL (rat [10]; [37]): 40 mg/kg/day | LEL (rat [10]; [38]): 80 mg/kg/day | LOAEL (rat [10]; [38]): 80 mg/kg/day | NEL (rat [10]; [38]): 40 mg/kg/day | NOAEL (rat [10]; [38]): 40 mg/kg/day | LOAEL (mouse [11]; systemic / in life observation / mortality / mortality): 84.3 mg/kg/day | NOAEL (mouse [11]; systemic / in life observation / mortality / mortality + systemic / pathology microscopic / liver / adenoma/carcinoma combined + systemic / …): 43.4 mg/kg/day | LEL (mouse [11]; [23]): 43.4 mg/kg/day | NEL (mouse [11]; [23]): < 43.4 mg/kg/day

CN(C)[C@@H]1C(=O)C(C(N)=O)=C(O)[C@@]2(O)C(=O)C3=C(O)c4c(O)cccc4[C@@](C)(O)[C@H]3C[C@@H]12 [Tetracycline]
LEL (rat [12]): 125 mg/kg/day | LOAEL (rat [12]): > 500 mg/kg/day | NEL (rat [12]): < 125 mg/kg/day | NOAEL (rat [12]): ≥ 500 mg/kg/day | LEL (dog [13]): 40 mg/kg/day | LOAEL (dog [13]): > 40 mg/kg/day | NEL (dog [13]): < 40 mg/kg/day | NOAEL (dog [13]): ≥ 40 mg/kg/day | LEL (dog [14]): 500 mg/kg/day | LOAEL (dog [14]): > 500 mg/kg/day | NEL (dog [14]): 250 mg/kg/day | NOAEL (dog [14]): ≥ 500 mg/kg/day

Cc1ccccc1 [Toluene]
NEL (rat [15]; systemic / in life observation / body weight / body weight + systemic / in life observation / body weight / body weight gain): 600 ppm | LEL (rat [15]; [39]): 1000 ppm | LOAEL (rat [15]; [39]): > 1200 ppm | NOAEL (rat [15]; [39]): ≥ 1200 ppm | LEL (rat [16]): 12000 ppm | LOAEL (rat [16]): > 12000 ppm | NEL (rat [16]): 8000 ppm | NOAEL (rat [16]): ≥ 12000 ppm | LEL (rat [17]): 1800 ppm | LOAEL (rat [17]): > 1800 ppm | NEL (rat [17]): < 1800 ppm | NOAEL (rat [17]): ≥ 1800 ppm | LEL (rat [18]; [40]): 8000 ppm | NEL (rat [18]; [40]): < 8000 ppm | LOAEL (rat [18]; [41]): > 12000 ppm | NOAEL (rat [18]; [41]): ≥ 12000 ppm | LEL (rat [19]): 1200 ppm | LOAEL (rat [19]): > 1200 ppm | NEL (rat [19]): < 1200 ppm | NOAEL (rat [19]): ≥ 1200 ppm | LEL (mouse [20]): 2000 ppm | LOAEL (mouse [20]): > 2000 ppm | NEL (mouse [20]): 400 ppm | NOAEL (mouse [20]): ≥ 2000 ppm
